Test results: patent US8569378B2, “p27 protein inducer” (Chugai Seiyaku Kabushiki Kaisha, priority 2007, dated 2013)

System: p27 protein
Assay: Quantification of p27 protein by ELISA (p27 protein-inducing activity, EC50)
Format: cell-based, human
Details: NCI-H460 cells, 48 hours, p27 sandwich ELISA; Table 1-1
Description: The p27 protein-inducing activities of the compounds or salts listed in Tables 1-1, 1-2 and 2 below were measured as follows.
Preparation of Cell Lysate:
NCI-H460 human non-small cell lung cancer cells (ATCC HTB-177) were plated in 6-well plates at 2×10^5 cells/well and incubated overnight. Then, the test substance was added to the medium to a final concentration of 10000 nmol/L, 3000 nmol/L, 100 nmol/L, 30 nmol/L, 10 nmol/L, 3 nmol/L, 1 nmol/L, 0.3 nmol/L, 0.1 nmol/L, 0.03 nmol/L or 0.01 nmol/L and the cells were incubated at 37° C. in 5% CO2 for 48 hours. 150 μL of Cell Lysis Buffer (catalog no. 9803, Cell Signaling) which had been diluted to 1-fold concentration (1 mM PMSF was added immediately before use) was added, and the mixture was allowed to stand on ice for 10 minutes. The Cell Lysis Buffer in which cells were lysed was collected together with cells with a scraper and transferred to a new tube. It was centrifuged at 15000 rpm for 10 minutes at 4° C. and the supernatant was then transferred to a new tube.
Quantification by Sandwich ELISA:
Anti-p27 monoclonal antibody (catalog no. 71-9600, Zymed) was diluted to 5 μg/mL in 50 mM carbonate coating buffer (0.4 g/L NaCO3, 0.73 g/L NaHCO3 and 0.04 g/L NaN3 in distilled water), and it was then added at 50 μL/well and allowed to stand overnight at 4° C. to bind the antibody. After washing three times with PBS, 200 μL of blocking solution (0.2% I-Block in PBS) was added to each well. After 1 hour of incubation at room temperature, washing with PBS-T (0.05% Tween 20 in PBS) was performed three times. The sample and recombinant p27 protein standard were serially diluted in Cell Lysis Buffer (catalog no. 9803, Cell Signaling) which had been diluted to 1-fold concentration (1 mM PMSF was added immediately before use), and it was then added at 100 μL/well. After 1 hour of incubation at room temperature, washing with 200 μL of PBS-T was performed three times. HRP-labeled anti-p27 antibody (product no. 610243, BD Transdution Laboratories) was diluted 1:2500 (i.e. to 0.1 μg/mL) in 0.2% I-Block/0.05% PBS-T, and it was then added at 100 μL/well. After 1 hour of incubation at room temperature, washing with 200 μL of PBS-T was performed three times. Chromogenic substrate solution (TMB One Solution, catalog no. G7431, Promega) was added at 100 μL/well and allowed to develop a color reaction at room temperature. After stopping the reaction with 50 μL of 1N H2SO4, the absorbance at 450 nm was measured.
Calculation of EC50 Values:
A standard response curve was generated by plotting the amount of p27 protein against the concentration of the test substance. The basal level of response was defined as 0%, while the plateau level where the induction of p27 protein had been maximized was defined as 100%. Finally, the test substance concentration at which 50% induction was achieved was calculated, and it was defined as EC50.

**Q.** `CNS(=O)(=O)Nc1cccc(Cc2c(CF)c3cc(Cl)c(OC(=O)N(C)C)cc3oc2=O)c1` [Compound 1j-1-3-2F, Dimethylcarbamic acid 6-chloro-4-fluoromethyl-3-{3-(methylaminosulfonyl)aminobenzyl}-2-oxo-2H-1-benzopyran-7-yl ester] was tested. Which EC50 did it give?
**A.** Its EC50 is 31 nM.

**Q.** `Cc1c(Cc2cccc(NS(=O)(=O)N(C)C)c2)c(=O)oc2cc(OC(=O)N(C)C)c(Cl)cc12` [Compound 1j-1-3-3, Dimethylcarbamic acid 6-chloro-4-methyl-3-{3-(dimethylaminosulfonyl)aminobenzyl}-2-oxo-2H-1-benzopyran-7-yl ester] was tested. Which EC50 did it give?
**A.** The EC50 was 74 nM.

**Q.** `Cc1c(Cc2cccc(NS(N)(=O)=O)c2F)c(=O)oc2cc(OC(=O)N(C)C)ccc12` [Compound 1j-1-4-1, Dimethylcarbamic acid 3-(3-aminosulfonylamino-2-fluoro-benzyl)-4-methyl-2-oxo-2H-1-benzopyran-7-yl ester] was tested. Which EC50 did it give?
**A.** The EC50 was 180 nM.

**Q.** With `CNS(=O)(=O)Nc1cccc(Cc2c(C)c3ccc(OC(=O)N(C)C)cc3oc2=O)c1F` [Compound 1j-1-4-2, Dimethylcarbamic acid 3-(3-methylaminosulfonylamino-2-fluoro-benzyl)-4-methyl-2-oxo-2H-1-benzopyran-7-yl ester] as the compound, how does the EC50 read?
**A.** Its EC50 is 78 nM.

**Q.** How did the EC50 turn out when `CNS(=O)(=O)Nc1cccc(Cc2c(CF)c3ccc(OC(=O)N(C)C)cc3oc2=O)c1F` [Compound 1j-1-4-2F, Dimethylcarbamic acid 3-(3-methylaminosulfonylamino-2-fluoro-benzyl)-4-fluoromethyl-2-oxo-2H-1-benzopyran-7-yl ester] was run?
**A.** Its EC50 is 60 nM.

**Q.** How did the EC50 turn out when `CNS(=O)(=O)Nc1cccc(Cc2c(C)c3cc(F)c(OC(=O)N(C)C)cc3oc2=O)c1F` [Compound 1j-1-5-2, Dimethylcarbamic acid 6-fluoro-4-methyl-3-{2-fluoro-3-(methylaminosulfonyl)aminobenzyl}-2-oxo-2H-1-benzopyran-7-yl ester] was run?
**A.** Its EC50 is 210 nM.

**Q.** With `Cc1c(Cc2cccc(NS(N)(=O)=O)c2)c(=O)oc2cc(OC(=O)N(C)C)c(I)cc12` [Compound 1j-1-7-1, Dimethylcarbamic acid 3-{3-(aminosulfonyl)aminobenzyl}-6-iodo-4-methyl-2-oxo-2H-1-benzopyran-7-yl ester] as the compound, how does the EC50 read?
**A.** Its EC50 is 160 nM.

**Q.** Which EC50 does the source give for `CNS(=O)(=O)Nc1cccc(Cc2c(C)c3cc(I)c(OC(=O)N(C)C)cc3oc2=O)c1` [Compound 1j-1-7-2, Dimethylcarbamic acid 6-iodo-4-methyl-3-{3-(methylaminosulfonyl)aminobenzyl}-2-oxo-2H-1-benzopyran-7-yl ester] here?
**A.** Its EC50 is 27 nM.

**Q.** For `CNS(=O)(=O)Nc1cccc(Cc2c(C)c3cc(C)c(OC(=O)N(C)C)cc3oc2=O)c1` [Compound 1j-1-8-2, Dimethylcarbamic acid 6-methyl-4-methyl-3-{3-(methylaminosulfonyl)aminobenzyl}-2-oxo-2H-1-benzopyran-7-yl ester], which EC50 is on record?
**A.** Its EC50 is 240 nM.

**Q.** `CNS(=O)(=O)Nc1cccc(Cc2c(C)c3cc(C#N)c(OC(=O)N(C)C)cc3oc2=O)c1` [Compound 1j-1-9-2, Dimethylcarbamic acid 6-cyano-4-methyl-3-{3-(methylaminosulfonyl)aminobenzyl}-2-oxo-2H-1-benzopyran-7-yl ester] was tested. Which EC50 did it give?
**A.** Its EC50 is 4800 nM.

**Q.** How did the EC50 turn out when `Cc1c(Cc2cccc(NS(=O)(=O)NCCC#N)c2)c(=O)oc2cc(OC(=O)N(C)C)c(Cl)cc12` [Compound 1j-1-21-2, Dimethylcarbamic acid 3-(3-(N-(2-cyanoethyl)sulfamoyl)aminobenzyl)-6-chloro-4-methyl-2-oxo-2H-1-benzopyran-7-yl ester] was run?
**A.** Its EC50 is 150 nM.

**Q.** For `COCCNS(=O)(=O)Nc1cccc(Cc2c(C)c3cc(Cl)c(OC(=O)N(C)C)cc3oc2=O)c1` [Compound 1j-1-23-2, Dimethylcarbamic acid 3-(3-(N-(2-methoxyethyl)sulfamoyl)aminobenzyl)-6-chloro-4-methyl-2-oxo-2H-1-benzopyran-7-yl ester], which EC50 is on record?
**A.** Its EC50 is 220 nM.

Same assay, conditions: NCI-H460 cells, 48 hours, p27 sandwich ELISA; Table 1-2

**Q.** `Cc1c(Cc2ccccc2)c(=O)oc2cc(OC(=O)N(C)C)c(Cl)cc12` [Comp. 2, dimethylcarbamic acid 2-oxo-2H-3-benzyl-4-methyl-6-chloro-1-benzopyran-7-yl ester, reference compound] was tested. Which EC50 did it give?
**A.** The EC50 was 5400 nM.

**Q.** `CNS(=O)(=O)Nc1cc(Cc2c(C)c3cc(Cl)c(OC(=O)N(C)C)cc3oc2=O)ccn1` [Compound 1j-1-12-2, Dimethylcarbamic acid 4-methyl-3-{2-(methylaminosulfonyl)aminopyridin-4-ylmethyl}-6-chloro-2-oxo-2H-1-benzopyran-7-yl ester] was tested. Which EC50 did it give?
**A.** The EC50 was 1100 nM.

**Q.** With `CNS(=O)(=O)Nc1nccc(Cc2c(C)c3cc(F)c(Oc4ncccn4)cc3oc2=O)c1F` [Compound 1j-2-17-2, 3-{2-(methylaminosulfonyl)amino-3-fluoropyridin-4-ylmethyl}-4-methyl-6-fluoro-7-(pyrimidin-2-yloxy)-2-oxo-2H-1-benzopyran] as the compound, how does the EC50 read?
**A.** Its EC50 is 220 nM.

**Q.** `CNS(=O)(=O)Nc1nccc(Cc2c(C)c3cc(Cl)c(Oc4ncccn4)cc3oc2=O)c1F` [Compound 1j-2-18-2, 3-{2-(Methylaminosulfonyl)amino-3-fluoropyridin-4-ylmethyl}-4-methyl-6-chloro-7-(pyrimidin-2-yloxy)-2-oxo-2H-1-benzopyran] was tested. Which EC50 did it give?
**A.** Its EC50 is 43 nM.

**Q.** For `CNS(=O)(=O)Nc1nccc(Cc2c(C)c3cc(C)c(Oc4ncccn4)cc3oc2=O)c1F` [Compound 1j-2-19-2, 3-{2-(Methylaminosulfonyl)amino-3-fluoropyridin-4-ylmethyl}-4-methyl-6-methyl-7-(pyrimidin-2-yloxy)-2-oxo-2H-1-benzopyran], which EC50 is on record?
**A.** Its EC50 is 160 nM.

**Q.** `CCc1c(Cc2ccnc(NS(=O)(=O)NC)c2F)c(=O)oc2cc(Oc3ncccn3)c(C)cc12` [Compound 1j-2-19-2Me, 3-{2-(Methylaminosulfonyl)amino-3-fluoropyridin-4-ylmethyl}-4-ethyl-6-methyl-7-(pyrimidin-2-yloxy)-2-oxo-2H-1-benzopyran] was tested. Which EC50 did it give?
**A.** The EC50 was 48 nM.

**Q.** How did the EC50 turn out when `CNS(=O)(=O)Nc1cc(Cc2c(C)c3cc(Cl)c(Oc4nccs4)cc3oc2=O)ccn1` [Compound 1j-3-12-2, 3-{2-(Methylaminosulfonyl)aminopyridin-4-ylmethyl}-4-methyl-6-chloro-7-(thiazol-2-yloxy)-2-oxo-2H-1-benzopyran] was run?
**A.** Its EC50 is 458 nM.

**Q.** For `CNS(=O)(=O)Nc1nccc(Cc2c(C)c3cc(C)c(Oc4nccs4)cc3oc2=O)c1F` [Compound 1j-3-19-2, 3-{2-(Methylaminosulfonyl)amino-3-fluoropyridin-4-ylmethyl}-4-methyl-6-methyl-7-(thiazol-2-yloxy)-2-oxo-2H-1-benzopyran], which EC50 is on record?
**A.** The EC50 was 19 nM.

Same assay, conditions: NCI-H460 cells, 48 hours, p27 sandwich ELISA; Table 2

**Q.** Which EC50 does the source give for `CNS(=O)(=O)Nc1cccc(Cc2c(C)c3ccc(OC(=O)N(C)C)cc3oc2=O)n1` [Compound 1j-1-13-2, Dimethylcarbamic acid 4-methyl-3-{6-(methylaminosulfonyl)aminopyridin-2-ylmethyl}-2-oxo-2H-1-benzopyran-7-yl ester] here?
**A.** Its EC50 is 2500 nM.

**Q.** `CNS(=O)(=O)Nc1cc(Cc2c(C)c3cc(Cl)c(Oc4ncccn4)cc3oc2=O)ccn1` [Compound 1j-2-12-2, 3-{2-(Methylaminosulfonyl)aminopyridin-4-ylmethyl}-4-methyl-7-(pyrimidin-2-yloxy)-6-chloro-2-oxo-2H-1-benzopyran] was tested. Which EC50 did it give?
**A.** The EC50 was 1450 nM.

**Q.** `CNS(=O)(=O)Nc1nccc(Cc2c(C)c3ccc(Oc4ncccn4)cc3oc2=O)c1F` [Compound 1j-2-16-2, 3-{2-(Methylaminosulfonyl)amino-3-fluoropyridin-4-ylmethyl}-4-methyl-7-(pyrimidin-2-yloxy)-2-oxo-2H-1-benzopyran] was tested. Which EC50 did it give?
**A.** The EC50 was 504 nM.

**Q.** Which EC50 does the source give for `CNS(=O)(=O)Nc1cccc(Cc2c(C)c3ccc(Oc4nccs4)cc3oc2=O)c1` [Compound 1j-3-1-2, 3-{3-(Methylaminosulfonyl)aminobenzyl}-4-methyl-7-(thiazol-2-yloxy)-2-oxo-2H-1-benzopyran] here?
**A.** The EC50 was 7100 nM.

**Q.** How did the EC50 turn out when `CNS(=O)(=O)Nc1cccc(Cc2c(C)c3cc(C)c(Oc4nccs4)cc3oc2=O)c1` [Compound 1j-3-8-2, 3-{3-(Methylaminosulfonyl)aminobenzyl}-4-methyl-7-(thiazol-2-yloxy)-6-methyl-2-oxo-2H-1-benzopyran] was run?
**A.** The EC50 was 540 nM.
